The values below come from PubChem BioAssay AID651581 (Sanford-Burnham Center for Chemical Genomics, 2012).

For experiment [1], the target named is Endothelial PAS domain-containing protein 1 (Homo sapiens) (UniProt Q99814). The experiment in a line: HIF-2a and HIF-1a reporter inhibition panel, dose response, selectivity assay for HIF-2a inhibitor project, cell-based, luminescence (AID 651581).
Experiment [2] has as its target Hypoxia-inducible factor 1-alpha (Homo sapiens) (UniProt Q16665). The experiment is described as above. Particulars: HIF-1a.

Calls of active or inactive are those of the source. How the calls were made is not given here.

Sequence of Hypoxia-inducible factor 1-alpha (Homo sapiens) (Q16665 whole entry, looked up): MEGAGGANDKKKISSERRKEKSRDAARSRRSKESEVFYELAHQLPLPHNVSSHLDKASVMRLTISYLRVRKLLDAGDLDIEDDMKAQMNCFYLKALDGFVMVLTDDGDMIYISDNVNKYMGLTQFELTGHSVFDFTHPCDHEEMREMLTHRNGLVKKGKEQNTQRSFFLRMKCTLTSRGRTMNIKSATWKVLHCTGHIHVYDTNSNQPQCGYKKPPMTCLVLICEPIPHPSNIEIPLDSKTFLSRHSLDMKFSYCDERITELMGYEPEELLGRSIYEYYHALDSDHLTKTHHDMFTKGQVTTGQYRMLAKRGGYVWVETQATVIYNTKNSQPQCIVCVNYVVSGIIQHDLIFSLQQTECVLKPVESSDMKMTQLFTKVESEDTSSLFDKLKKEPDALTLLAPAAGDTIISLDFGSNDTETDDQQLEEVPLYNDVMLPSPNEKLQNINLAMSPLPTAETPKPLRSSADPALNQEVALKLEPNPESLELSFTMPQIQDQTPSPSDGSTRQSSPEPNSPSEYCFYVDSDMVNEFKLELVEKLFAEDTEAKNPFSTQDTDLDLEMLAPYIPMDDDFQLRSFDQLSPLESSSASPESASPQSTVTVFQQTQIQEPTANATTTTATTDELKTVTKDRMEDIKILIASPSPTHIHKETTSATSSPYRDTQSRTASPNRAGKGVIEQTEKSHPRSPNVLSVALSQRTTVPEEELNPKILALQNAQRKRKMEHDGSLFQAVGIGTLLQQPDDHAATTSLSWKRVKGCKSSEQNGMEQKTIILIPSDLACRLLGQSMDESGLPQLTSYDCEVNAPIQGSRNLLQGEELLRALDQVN

As for `O=C(O)c1cccc(-c2nnn(Cc3ccccc3Cl)n2)c1`, the IC50 is > 99 µM (inactive) in experiment [1] (HIF-2a PANC, mean of runs); over 99 µM in experiment [1] (HIF-2a PANC, run 1); over 99 µM in experiment [1] (HIF-2a PANC, run 2); < 30 µM (inactive) in experiment [1] (HIF-2a, mean of runs); under 30 µM in experiment [1] (HIF-2a, run 1); under 30 µM in experiment [1] (HIF-2a, run 2). For the same molecule, the IC50 in experiment [2] (run 1) and in experiment [2] (run 2) was over 99 µM in each case.
With `COCCn1c(C)cc(C(=O)CSc2nnc3ccccn23)c1C`, the IC50 result in experiment [1] (HIF-2a PANC, mean of runs) was “inactive”. Also, the IC50 in experiment [1] (HIF-2a PANC, run 1) was 81.3 µM; in experiment [1] (HIF-2a PANC, run 2), 31 µM; in experiment [1] (HIF-2a, mean of runs), 7.43 µM; in experiment [1] (HIF-2a, run 1), 7.46 µM; in experiment [1] (HIF-2a, run 2) it was 7.41 µM; in experiment [2] (mean of runs), 27.5 µM. Moreover, the IC50 in experiment [2] (run 1) was 28.9 µM; in experiment [2] (run 2) it was 26.2 µM.
As for `O=C(O)c1cccc(CSc2nnc(COc3ccccc3)o2)c1`, the IC50 in experiment [1] (HIF-2a PANC, run 1) is over 99 µM; in experiment [1] (HIF-2a PANC, run 2), 18.8 µM; in experiment [1] (HIF-2a, mean of runs) it was 6.36 µM; in experiment [1] (HIF-2a, run 1), 6.48 µM; in experiment [1] (HIF-2a, run 2), 6.23 µM; in experiment [2] (run 1), over 99 µM. Moreover, the half-maximal inhibitory concentration (IC50) in experiment [2] (run 2) was over 99 µM.
As to `CCOC(=O)c1cccc(NC(=O)/C=C/c2ccc3c(c2)OCO3)c1`, the IC50 in experiment [1] (HIF-2a PANC, run 1) is 42.7 µM; in experiment [1] (HIF-2a PANC, run 2), over 99 µM; in experiment [1] (HIF-2a, run 1), 18.6 µM; in experiment [1] (HIF-2a, run 2) it was 14.7 µM; in experiment [2] (run 1), 25.4 µM; in experiment [2] (run 2), 27.5 µM. Moreover, the IC50 entry in experiment [1] (HIF-2a, mean of runs) was “inactive”; in experiment [2] (mean of runs), “inactive”.
Turning to `O=C(O)c1cccc(NC(=S)NC(=O)c2ccc3ccccc3c2)c1`, the 50% inhibitory concentration (IC50) in experiment [1] (HIF-2a PANC, run 1) was under 30 µM; in experiment [1] (HIF-2a PANC, run 2) it was over 99 µM; in experiment [1] (HIF-2a, run 1), 10.9 µM; in experiment [1] (HIF-2a, run 2) it was 9.32 µM; in experiment [2] (run 1) it was over 99 µM; in experiment [2] (run 2) it was over 99 µM. Also, the IC50 entry in experiment [1] (HIF-2a, mean of runs) is “inactive”.
Regarding `CC(C)COc1ccc(C(=S)N2CCCC2)cc1`, the IC50 in experiment [1] (HIF-2a PANC, mean of runs) was 14.5 µM; in experiment [1] (HIF-2a PANC, run 1), 13.6 µM; in experiment [1] (HIF-2a PANC, run 2) it was 15.5 µM; in experiment [1] (HIF-2a, mean of runs), 4.91 µM; in experiment [1] (HIF-2a, run 1) it was 4.41 µM; in experiment [1] (HIF-2a, run 2), 5.42 µM. Further, the IC50 in experiment [2] (run 1) and in experiment [2] (run 2) was over 99 µM in each case.
Consider `CCC(=O)Nc1cccc(C(=O)c2ccc(C)c(C)c2)c1`, for which the IC50 is over 99 µM in experiment [1] (HIF-2a PANC, run 1); over 99 µM in experiment [1] (HIF-2a PANC, run 2); over 99 µM in experiment [1] (HIF-2a, run 1); 1.57 µM in experiment [1] (HIF-2a, run 2); over 99 µM in experiment [2] (run 1); 38.7 µM in experiment [2] (run 2).
For `COc1ccc(CNC(=O)c2nc(S(=O)(=O)Cc3ccccc3)ncc2Cl)cc1`, the IC50 entry in experiment [1] (HIF-2a PANC, mean of runs) is “inactive”. The IC50 in experiment [1] (HIF-2a PANC, run 1) is 29.8 µM; in experiment [1] (HIF-2a PANC, run 2), 31.1 µM; in experiment [1] (HIF-2a, mean of runs) it was 8.83 µM; in experiment [1] (HIF-2a, run 1), 8.77 µM; in experiment [1] (HIF-2a, run 2), 8.9 µM; in experiment [2] (mean of runs), 27 µM. Also, the IC50 came to 28.1 µM in experiment [2] (run 1) and 26 µM in experiment [2] (run 2).
For `O=C(NCc1ccccc1)C(=O)Nc1cccc(C(=O)O)c1`, the IC50 is > 99 µM (inactive) in experiment [1] (HIF-2a PANC, mean of runs); over 99 µM in experiment [1] (HIF-2a PANC, run 1); over 99 µM in experiment [1] (HIF-2a PANC, run 2); 9.97 µM in experiment [1] (HIF-2a, mean of runs); 9.98 µM in experiment [1] (HIF-2a, run 1); 9.95 µM in experiment [1] (HIF-2a, run 2). The IC50 in experiment [2] (run 1) and in experiment [2] (run 2) was over 99 µM each time.
Consider `Cc1nc(SCc2ccc(C(=O)O)cc2)nc2c1CCCC2`, for which the IC50 entry was “inactive” in experiment [1] (HIF-2a PANC, mean of runs) and “inactive” in experiment [2] (mean of runs). For the same molecule, the IC50 was 20.8 µM in experiment [1] (HIF-2a PANC, run 1); 23.6 µM in experiment [1] (HIF-2a PANC, run 2); 4.53 µM in experiment [1] (HIF-2a, mean of runs); 4.31 µM in experiment [1] (HIF-2a, run 1); 4.75 µM in experiment [1] (HIF-2a, run 2); 12.3 µM in experiment [2] (run 1). This molecule returned an IC50 in experiment [2] (run 2) of 7.67 µM.
For the molecule `Cc1nc2cc(-c3ccc(Cl)cc3)nn2c(C)c1CCC(=O)NCc1ccco1`, the IC50 in experiment [1] (HIF-2a PANC, mean of runs) is 0.787 µM; in experiment [1] (HIF-2a PANC, run 1), 0.773 µM; in experiment [1] (HIF-2a PANC, run 2) it was 0.801 µM; in experiment [1] (HIF-2a, mean of runs) it was 1.43 µM; in experiment [1] (HIF-2a, run 1), 1.43 µM; in experiment [1] (HIF-2a, run 2) it was 1.44 µM. For the same molecule, the figures for the IC50 in experiment [2] (run 1) and in experiment [2] (run 2) were 3.16 µM and 2.84 µM, respectively. For the same molecule, the IC50 result in experiment [2] (mean of runs) was “inactive”.
For the molecule `Cc1ccc(NC(=S)NNc2ncc(C(F)(F)F)cc2Cl)cc1`, the IC50 is 1.29 µM in experiment [1] (HIF-2a PANC, mean of runs); 1.66 µM in experiment [1] (HIF-2a PANC, run 1); 0.928 µM in experiment [1] (HIF-2a PANC, run 2); 4.58 µM in experiment [1] (HIF-2a, mean of runs); 4.66 µM in experiment [1] (HIF-2a, run 1); 4.49 µM in experiment [1] (HIF-2a, run 2). Also, the IC50 in experiment [2] (mean of runs) was 27 µM; in experiment [2] (run 1), 20.4 µM; in experiment [2] (run 2), 33.5 µM.
As for `O=C1C=CC(=O)N1c1ccccc1N1C(=O)C=CC1=O`, the IC50 in experiment [1] (HIF-2a PANC, mean of runs) is > 99 µM (inactive); in experiment [1] (HIF-2a PANC, run 1), over 99 µM; in experiment [1] (HIF-2a PANC, run 2), over 99 µM; in experiment [1] (HIF-2a, run 1), 13.4 µM; in experiment [1] (HIF-2a, run 2), 13.2 µM; in experiment [2] (run 1), 40.9 µM. The molecule further displayed an IC50 in experiment [2] (run 2) of 34.6 µM. Further, the IC50 result is “inactive” in experiment [1] (HIF-2a, mean of runs) and “inactive” in experiment [2] (mean of runs).
